Source: patent US11965039B2, “Compstatin analogues and their medical uses” (priority 2018, dated 2024)
Positions of bridges follow the written chain, without caps; N, C: chain ends. Non-standard residues stand in square brackets, D forms with d. Residues, ends and D or L forms follow the SMILES beside them. Trp(1-Me) = Cn1cc(C[C@H](N)C(=O)O)c2ccccc21; 2Nal = N[C@@H](Cc1ccc2ccccc2c1)C(=O)O; Sar = CNCC(=O)O

Each compound was assayed on classical complement pathway (assay: In vitro haemolysis assay (inhibition of classical complement pathway)). Settings: human serum, sensitized sheep red blood cells; Table 3, given as upper bounds; read-out: IC50, inhibition of hemolysis.
Assay type: cell-based, human
Method in brief: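 Compound dilutions preincubated 15 min at room temperature with diluted human serum (titrated per batch for 70-90% maximal haemolysis), then antibody-sensitized sheep RBC (10^7/well) added for 30 min at 37 °C in Tris/casein buffer, pH 7.4. Stopped with EDTA; haemolysis read at 405 nm; IC50 by 4PL fit.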

Question: With `CC[C@H](C)[C@@H]1NC(=O)[C@@H](NC(=O)[C@H](Cc2ccccc2)NC(C)=O)CSSC[C@@H](C(=O)N[C@H](C(=O)NCC(=O)N[C@@H](C)C(=O)N[C@@H](CCC(=O)O)C(=O)N[C@@H](CO)C(N)=O)[C@@H](C)O)NC(=O)[C@H](CCCNC(=N)N)NC(=O)[C@H](Cc2c[nH]cn2)NC(=O)[C@H](CCC(=O)O)NC(=O)CNC(=O)[C@H](Cc2c[nH]c3ccccc23)NC(=O)[C@H](CC(=O)O)NC(=O)[C@H](CCC(N)=O)NC(=O)[C@H](Cc2ccc3ccccc3c2)NC1=O` [Compound 64] (Ac-FCI[2Nal]QDWGEHRCTGAES-NH2; disulfide 2-12) as the compound, how does the IC50 read?
Answer: < 100 nM

Question: How did the IC50 turn out when `CC[C@H](C)[C@@H]1NC(=O)[C@@H](NC(=O)[C@H](Cc2ccc(O)cc2)NC(C)=O)CSSC[C@@H](C(=O)N[C@H](C(=O)N[C@@H](CCC(=O)O)C(=O)N[C@@H](CO)C(=O)NCC(=O)N[C@@H](C)C(N)=O)[C@@H](C)O)NC(=O)[C@H](CCCNC(=N)N)NC(=O)[C@H](Cc2c[nH]cn2)NC(=O)[C@H](CCC(=O)O)NC(=O)CNC(=O)[C@H](Cc2c[nH]c3ccccc23)NC(=O)[C@H](CC(=O)O)NC(=O)[C@H](CCC(N)=O)NC(=O)[C@H](Cc2cn(C)c3ccccc23)NC1=O` [Compound 69] (Ac-YCI[Trp(1-Me)]QDWGEHRCTESGA-NH2; disulfide 2-12) was run?
Answer: < 100 nM

Question: Which IC50 does the source give for `CC[C@H](C)[C@@H]1NC(=O)[C@@H](NC(=O)[C@H](Cc2ccc(O)cc2)NC(=O)[C@H](C)NC(=O)[C@H](CO)NC(=O)CNC(=O)[C@H](CCC(=O)O)NC(C)=O)CSSC[C@@H](C(=O)N(C)CC(=O)N[C@@H](CCC(=O)O)C(N)=O)NC(=O)[C@H](CCCNC(=N)N)NC(=O)[C@H](Cc2c[nH]cn2)NC(=O)[C@H](CCC(=O)O)NC(=O)CNC(=O)[C@H](Cc2c[nH]c3ccccc23)NC(=O)[C@H](CCC(=O)O)NC(=O)[C@H](CCC(N)=O)NC(=O)[C@H](Cc2cn(C)c3ccccc23)NC1=O` [Compound 70] (Ac-EGSAYCI[Trp(1-Me)]QEWGEHRC[Sar]E-NH2; disulfide 6-16) here?
Answer: < 100 nM

Question: How did the IC50 turn out when `CC[C@H](C)[C@@H]1NC(=O)[C@@H](NC(=O)[C@H](Cc2ccc(O)cc2)NC(=O)[C@H](CCC(=O)O)NC(=O)[C@H](CO)NC(C)=O)CSSC[C@@H](C(=O)N(C)CC(=O)N[C@@H](CCC(=O)O)C(=O)N[C@@H](C)C(N)=O)NC(=O)[C@H](CCCNC(=N)N)NC(=O)[C@H](Cc2c[nH]cn2)NC(=O)[C@H](CCC(=O)O)NC(=O)CNC(=O)[C@H](Cc2c[nH]c3ccccc23)NC(=O)[C@H](CC(=O)O)NC(=O)[C@H](CCC(N)=O)NC(=O)[C@H](Cc2cn(C)c3ccccc23)NC1=O` [Compound 71] (Ac-SEYCI[Trp(1-Me)]QDWGEHRC[Sar]EA-NH2; disulfide 4-14) was run?
Answer: < 100 nM

Question: For `CC[C@H](C)[C@@H]1NC(=O)[C@@H](NC(=O)[C@H](Cc2ccccc2)NC(=O)[C@H](CCC(=O)O)NC(=O)[C@H](CO)NC(C)=O)CSSC[C@@H](C(=O)N(C)CC(=O)N[C@@H](CCC(=O)O)C(=O)N[C@@H](C)C(N)=O)NC(=O)[C@H](CCCNC(=N)N)NC(=O)[C@H](Cc2c[nH]cn2)NC(=O)[C@H](CCC(=O)O)NC(=O)CNC(=O)[C@H](Cc2c[nH]c3ccccc23)NC(=O)[C@H](CC(=O)O)NC(=O)[C@H](CCC(N)=O)NC(=O)[C@H](Cc2cn(C)c3ccccc23)NC1=O` [Compound 75] (Ac-SEFCI[Trp(1-Me)]QDWGEHRC[Sar]EA-NH2; disulfide 4-14), which IC50 is on record?
Answer: < 100 nM

Question: For `CC[C@H](C)[C@@H]1NC(=O)[C@@H](NC(=O)CN(C)C(=O)[C@H](CCC(=O)O)NC(=O)[C@H](CO)NC(C)=O)CSSC[C@@H](C(=O)N[C@H](C(=O)N[C@@H](CCC(=O)O)C(=O)N[C@@H](C)C(N)=O)[C@@H](C)O)NC(=O)[C@H](CCCNC(=N)N)NC(=O)[C@H](Cc2c[nH]cn2)NC(=O)[C@H](CCC(=O)O)NC(=O)CNC(=O)[C@H](Cc2c[nH]c3ccccc23)NC(=O)[C@H](CC(=O)O)NC(=O)[C@H](CCC(N)=O)NC(=O)[C@H](Cc2cn(C)c3ccccc23)NC1=O` [Compound 82] (Ac-SE[Sar]CI[Trp(1-Me)]QDWGEHRCTEA-NH2; disulfide 4-14), which IC50 is on record?
Answer: < 100 nM

Question: For `CC[C@H](C)[C@@H]1NC(=O)[C@@H](NC(=O)[C@H](Cc2ccccc2)NC(=O)[C@H](CCC(=O)O)NC(=O)[C@H](CO)NC(C)=O)CSSC[C@@H](C(=O)N(C)CC(=O)N[C@@H](CCC(=O)O)C(=O)N[C@@H](C)C(N)=O)NC(=O)[C@H](CCCNC(=N)N)NC(=O)[C@H](Cc2c[nH]cn2)NC(=O)[C@H](CCC(=O)O)NC(=O)CNC(=O)[C@H](Cc2c[nH]c3ccccc23)NC(=O)[C@H](CCC(=O)O)NC(=O)[C@H](CCC(N)=O)NC(=O)[C@H](Cc2cn(C)c3ccccc23)NC1=O` [Compound 83] (Ac-SEFCI[Trp(1-Me)]QEWGEHRC[Sar]EA-NH2; disulfide 4-14), which IC50 is on record?
Answer: < 100 nM

Question: `CC[C@H](C)[C@@H]1NC(=O)[C@@H](NC(=O)[C@H](Cc2ccccc2)NC(=O)[C@H](CCC(=O)O)NC(C)=O)CSSC[C@@H](C(=O)N[C@@H](CCC(=O)O)C(=O)N[C@@H](CO)C(N)=O)NC(=O)[C@H](CCCNC(=N)N)NC(=O)[C@H](Cc2c[nH]cn2)NC(=O)[C@H](CCC(=O)O)NC(=O)CNC(=O)[C@H](Cc2c[nH]c3ccccc23)NC(=O)[C@H](CC(=O)O)NC(=O)[C@H](CCC(N)=O)NC(=O)[C@H](Cc2cn(C)c3ccccc23)NC1=O` [Compound 85] (Ac-EFCI[Trp(1-Me)]QDWGEHRCES-NH2; disulfide 3-13) was tested. Which IC50 did it give?
Answer: < 100 nM

Question: `CC[C@H](C)[C@@H]1NC(=O)[C@@H](NC(=O)[C@H](Cc2ccccc2)NC(=O)[C@H](CCC(=O)O)NC(=O)[C@H](CO)NC(C)=O)CSSC[C@@H](C(=O)N(C)CC(=O)N[C@@H](CCC(=O)O)C(=O)N[C@@H](C)C(N)=O)NC(=O)[C@H](CCCCN)NC(=O)[C@H](Cc2c[nH]cn2)NC(=O)[C@H](CCC(=O)O)NC(=O)CNC(=O)[C@H](Cc2c[nH]c3ccccc23)NC(=O)[C@H](CC(=O)O)NC(=O)[C@H](CCC(N)=O)NC(=O)[C@H](Cc2cn(C)c3ccccc23)NC1=O` [Compound 86] (Ac-SEFCI[Trp(1-Me)]QDWGEHKC[Sar]EA-NH2; disulfide 4-14) was tested. Which IC50 did it give?
Answer: < 100 nM

Question: Which IC50 does the source give for `CC[C@H](C)[C@@H]1NC(=O)[C@@H](NC(=O)[C@H](Cc2ccccc2)NC(=O)[C@H](CCC(=O)O)NC(=O)CNC(C)=O)CSSC[C@@H](C(=O)N(C)CC(=O)N[C@@H](CCC(=O)O)C(=O)N[C@@H](C)C(N)=O)NC(=O)[C@H](CCCNC(=N)N)NC(=O)[C@H](Cc2c[nH]cn2)NC(=O)[C@H](CCC(=O)O)NC(=O)CNC(=O)[C@H](Cc2c[nH]c3ccccc23)NC(=O)[C@H](CC(=O)O)NC(=O)[C@H](CCC(N)=O)NC(=O)[C@H](Cc2cn(C)c3ccccc23)NC1=O` [Compound 87] (Ac-GEFCI[Trp(1-Me)]QDWGEHRC[Sar]EA-NH2; disulfide 4-14) here?
Answer: < 100 nM

Question: Which IC50 does the source give for `CC[C@H](C)[C@@H]1NC(=O)[C@@H](NC(=O)CN(C)C(=O)[C@H](CCC(=O)O)NC(=O)CNC(C)=O)CSSC[C@@H](C(=O)N[C@H](C(=O)N[C@@H](CCC(=O)O)C(=O)N[C@@H](C)C(N)=O)[C@@H](C)O)NC(=O)[C@H](CCCNC(=N)N)NC(=O)[C@H](Cc2c[nH]cn2)NC(=O)[C@H](CCC(=O)O)NC(=O)CNC(=O)[C@H](Cc2c[nH]c3ccccc23)NC(=O)[C@H](CC(=O)O)NC(=O)[C@H](CCC(N)=O)NC(=O)[C@H](Cc2cn(C)c3ccccc23)NC1=O` [Compound 88] (Ac-GE[Sar]CI[Trp(1-Me)]QDWGEHRCTEA-NH2; disulfide 4-14) here?
Answer: < 100 nM

Question: With `CC[C@H](C)[C@@H]1NC(=O)[C@@H](NC(=O)CN(C)C(=O)[C@H](CCC(=O)O)NC(=O)[C@H](CO)NC(C)=O)CSSC[C@@H](C(=O)N[C@H](C(=O)N[C@@H](CCC(=O)O)C(=O)N[C@@H](C)C(N)=O)[C@@H](C)O)NC(=O)[C@H](CCCNC(=N)N)NC(=O)[C@H](Cc2c[nH]cn2)NC(=O)[C@H](CCC(=O)O)NC(=O)CN(C)C(=O)[C@H](Cc2c[nH]c3ccccc23)NC(=O)[C@H](CCC(=O)O)NC(=O)[C@H](CCC(N)=O)NC(=O)[C@H](Cc2cn(C)c3ccccc23)NC1=O` [Compound 89, Ac-SE[Sar]C(1)I[1-Me-Trp]QEW[Sar]EHRC(1)TEA-NH2] (Ac-SE[Sar]CI[Trp(1-Me)]QEW[Sar]EHRCTEA-NH2; disulfide 4-14) as the compound, how does the IC50 read?
Answer: < 100 nM

Question: `CC[C@H](C)[C@@H]1NC(=O)[C@@H](NC(=O)CN(C)C(=O)[C@H](CCC(=O)O)NC(=O)[C@H](CO)NC(C)=O)CSSC[C@@H](C(=O)N(C)CC(=O)N[C@@H](CCC(=O)O)C(=O)N[C@@H](C)C(N)=O)NC(=O)[C@H](CCCNC(=N)N)NC(=O)[C@H](Cc2c[nH]cn2)NC(=O)[C@H](CCC(=O)O)NC(=O)CNC(=O)[C@H](Cc2c[nH]c3ccccc23)NC(=O)[C@H](CCC(=O)O)NC(=O)[C@H](CCC(N)=O)NC(=O)[C@H](Cc2cn(C)c3ccccc23)NC1=O` [Compound 90] (Ac-SE[Sar]CI[Trp(1-Me)]QEWGEHRC[Sar]EA-NH2; disulfide 4-14) was tested. Which IC50 did it give?
Answer: < 250 nM

Question: How did the IC50 turn out when `CC[C@H](C)[C@@H]1NC(=O)[C@@H](NC(=O)CN(C)C(=O)[C@H](N)Cc2ccc(O)cc2)CSSC[C@@H](C(=O)N[C@H](C(=O)N[C@@H](CCC(=O)O)C(=O)N[C@@H](C)C(N)=O)[C@@H](C)O)NC(=O)[C@H](CCCNC(=N)N)NC(=O)[C@H](Cc2c[nH]cn2)NC(=O)[C@H](CCC(=O)O)NC(=O)CNC(=O)[C@H](Cc2c[nH]c3ccccc23)NC(=O)[C@H](CC(=O)O)NC(=O)[C@H](CCC(N)=O)NC(=O)[C@H](Cc2cn(C)c3ccccc23)NC1=O` [Compound 91] (H-[dY][Sar]CI[Trp(1-Me)]QDWGEHRCTEA-NH2; disulfide 3-13) was run?
Answer: < 100 nM

Same assay, conditions: read-out: IC50, inhibition of hemolysis

Question: For `CC[C@H](C)[C@@H]1NC(=O)[C@@H](NC(=O)[C@H](Cc2ccccc2)NC(=O)[C@H](CCC(=O)O)NC(=O)[C@H](CO)NC(C)=O)CSSC[C@@H](C(=O)N[C@@H](CO)C(=O)N[C@@H](CCC(=O)O)C(=O)N[C@@H](C)C(N)=O)NC(=O)[C@H](CCCNC(=N)N)NC(=O)[C@H](Cc2c[nH]cn2)NC(=O)[C@H](CCC(=O)O)NC(=O)CNC(=O)[C@H](Cc2c[nH]c3ccccc23)NC(=O)[C@H](CC(=O)O)NC(=O)[C@H](CCC(N)=O)NC(=O)[C@H](Cc2cn(C)c3ccccc23)NC1=O` [Compound 84] (Ac-SEFCI[Trp(1-Me)]QDWGEHRCSEA-NH2; disulfide 4-14), which IC50 is on record?
Answer: < 100 nM
